Active and inactive are the calls of the source.
Test system: INS1
Experiment: beta cell apoptosis inhibitors, cytokine rescue, dose response, luminescence, retest (AID 449756);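 further: cell death triggered by IL-1 beta plus TNF-alpha plus IFN-gamma mixture; protective hits raise ATP signal compared with cytokine alone wells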
Format: functional, cell-based
Settings: Rattus norvegicus
For `CCN(Cc1ccccc1)C(c1cccs1)c1nnnn1C1CCCCC1` (stereo not given), the AC50 was 9.27 µM (active).
For `COc1cc2c(cc1OC)C(NC(=O)C(F)(F)F)CNC2=O` (stereo not given), the AC50 was > 260 µM (inconclusive).
For `FC(F)(F)c1cnc(NN=C(S)Nc2ccc(Cl)cc2)c(Cl)c1`, the AC50 was 3.44 µM (active).
With `O=NN(CCc1ccncc1)c1ccc(OCc2ccccc2)cc1` the AC50 was 6.05 µM (active).
With `O=C(Nc1ccc(C(=O)Nc2ccccc2Cl)cc1)c1cccnc1` the AC50 was 1.06 µM (active).
In the case of `O=C(COC(=O)c1cn(-c2ccccc2)nc1-c1ccccc1)c1cccc([N+](=O)[O-])c1`, the AC50 is reported as 4.4 µM (active).
For `CCCCSc1ccc(NC(=O)c2cccnc2)cc1`, the AC50 was 8.46 µM (active).
In the case of `CCOC(=O)C1(Cc2cccc(Cl)c2)CCCN(C(=O)c2ccc(COC)s2)C1` (stereo not given), the AC50 is reported as > 260 µM (inactive).

Target: Cytochrome P450 2C19 (Homo sapiens, UniProt P33261)
Sequence (P33261 whole entry): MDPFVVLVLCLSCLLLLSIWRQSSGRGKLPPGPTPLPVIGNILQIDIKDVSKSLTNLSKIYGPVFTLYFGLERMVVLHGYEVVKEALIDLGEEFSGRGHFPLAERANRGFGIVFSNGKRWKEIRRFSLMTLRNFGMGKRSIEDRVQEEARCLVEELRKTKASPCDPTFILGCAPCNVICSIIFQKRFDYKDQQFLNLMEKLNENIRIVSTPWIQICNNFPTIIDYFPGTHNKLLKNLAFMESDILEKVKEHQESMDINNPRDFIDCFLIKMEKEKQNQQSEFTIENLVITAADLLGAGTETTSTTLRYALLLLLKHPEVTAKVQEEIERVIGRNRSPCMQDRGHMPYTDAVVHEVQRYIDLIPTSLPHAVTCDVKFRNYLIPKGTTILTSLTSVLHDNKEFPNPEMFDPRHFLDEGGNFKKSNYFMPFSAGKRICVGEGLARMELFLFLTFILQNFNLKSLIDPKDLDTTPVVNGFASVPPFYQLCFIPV
Experiment: Cytochrome panel assay with activity outcomes. Panel member name: p450-cyp2c19 Compounds with AC50 equal or less than 10 uM are considered active
Format: functional
Settings: read-out: AC50
In the case of `CCCC[C@H]1C(=O)N(c2ccccc2)N(c2ccc(O)cc2)C1=O`, the AC50 is reported as 15.8 µM (inconclusive).
For `CCSc1c(C(=O)NC)ccc2c1C(=O)c1ccccc1C2=O`, the AC50 was 28.2 µM (inconclusive).
With `COc1ccc(-c2cc(C(F)(F)F)n3ncc(C(=O)NCC4CCCO4)c3n2)cc1OC` (stereo not given) the AC50 was 14.1 µM (inconclusive).
With `Cn1c(=O)cnc2cnc(Nc3ccccc3)nc21` the AC50 was 7.94 µM (inconclusive).
For `O=C(N/N=C/c1ccc(Sc2nc3ccccc3s2)c([N+](=O)[O-])c1)c1ccccn1`, the AC50 was 7.08 µM (inconclusive).

Test system: H4
Experiment: Luminescence Cell-Based Dose Response HTS to Identify Activators of 5'UTR Stem-Loop Driven Prion Protein mRNA Translation in H4 Neuroglioblastoma Cells. [Related pubchem assays: 1829 (Project Summary), 1814 (Primary HTS)]
Format: functional
Settings: Homo sapiens
With `COc1ccc(C(=O)/C=C/c2ccccc2OC)c(OC(=O)c2ccc([N+](=O)[O-])cc2)c1` the EC50 was 54.1 µM (inconclusive).
For `N#Cc1nc(Cc2ccccc2)oc1NCCc1ccccc1`, the EC50 was 14.5 µM (active).

Test system: not listed separately
Experiment: C. albicans growth with fluconazole, confirmation, fluorescence, retest (AID 2467)
Format: functional, cell-based
Settings: not given
With `Cc1ccc(-c2c[n+](CC(=O)N3c4ccccc4Sc4ccccc43)c3n2CCC3)cc1` the EC50 was 2.77 µM (active).
For `Oc1ccc(N2CCN(C(S)=NCCc3ccccc3)CC2)cc1`, the EC50 was 0.177 µM (active).
For `Cc1cccc(Cc2nnc(CCC(=O)N3CCCCC3c3nccs3)o2)c1` (stereo not given), the EC50 was > 38 µM (not active).
With `Cc1cc2[nH]c(=O)c(=O)[nH]c2cc1S(=O)(=O)N1CCN(c2ccccc2F)CC1` the EC50 was > 38 µM (not active).
With `O=C(CCCl)N(Cc1nc(O)c2ccccc2n1)Cc1cccs1` the EC50 was > 38 µM (not active).
For `O=C(c1cc2c(s1)-c1ccccc1OC2)N1CCC2(CC1)OCCO2`, the EC50 was 2.9 µM (active).
For `CCOC(=O)CSc1ccc(C(=O)N2CCN(C)CC2)cc1[N+](=O)[O-]`, the EC50 was > 38 µM (not active).
For `COc1cc(C2C(C#N)=C(N)N(c3ccc(F)cc3)C3=C2S(=O)(=O)CC3)ccc1O` (stereo not given), the EC50 was > 38 µM (not active).

Test system: not listed separately
Experiment: cytotoxicity toward NIH3T3 fibroblasts, dose response, counter-screen, cell-based, ATP luminescence, mouse fibroblasts (AID 2010);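 further: cells exposed to compound for about 90 hours before reading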
Format: functional
Settings: not given
For `CCN(Cc1ccccc1)C(c1cccs1)c1nnnn1C1CCCCC1` (stereo not given), the EC50 was 16.3 µM (active).

Test system: not listed separately
Experiment: HEp-2 cell cytotoxicity, dose response, cytotoxicity control for RSV inhibitor project, HTS (AID 2410)
Format: functional
Settings: human respiratory syncytial virus
With `COc1ccc(C(=O)/C=C/c2ccccc2OC)c(OC(=O)c2ccc([N+](=O)[O-])cc2)c1` the CC50 was 19.1 µM (active).
In the case of `N#Cc1nc(Cc2ccccc2)oc1NCCc1ccccc1`, the CC50 is reported as 28.9 µM (active).

Test system: not listed separately
Experiment: NIH-3T3 fibroblast cytotoxicity, dose response, cytotoxicity control, cell-based, fluorescence, Alamar Blue, secondary assay (AID 2327);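 further: NIH-3T3 mouse fibroblasts cultured with fluconazole at 8 µg/mL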
Format: functional
Settings: not given
With `Cc1ccc(-c2c[n+](CC(=O)N3c4ccccc4Sc4ccccc43)c3n2CCC3)cc1` the EC50 was > 150 µM (inactive).
For `Oc1ccc(N2CCN(C(S)=NCCc3ccccc3)CC2)cc1`, the EC50 was > 150 µM (inactive).
In the case of `Cc1cccc(Cc2nnc(CCC(=O)N3CCCCC3c3nccs3)o2)c1` (stereo not given), the EC50 is reported as > 160 µM (inactive).
In the case of `Cc1cc2[nH]c(=O)c(=O)[nH]c2cc1S(=O)(=O)N1CCN(c2ccccc2F)CC1`, the EC50 is reported as > 150 µM (inactive).
For `O=C(CCCl)N(Cc1nc(O)c2ccccc2n1)Cc1cccs1`, the EC50 was > 160 µM (inactive).
With `O=C(c1cc2c(s1)-c1ccccc1OC2)N1CCC2(CC1)OCCO2` the EC50 was 43.1 µM (active).
For `CCOC(=O)CSc1ccc(C(=O)N2CCN(C)CC2)cc1[N+](=O)[O-]`, the EC50 was > 160 µM (inactive).
With `COc1cc(C2C(C#N)=C(N)N(c3ccc(F)cc3)C3=C2S(=O)(=O)CC3)ccc1O` (stereo not given) the EC50 was > 160 µM (inactive).

Target: T1, Cytochrome P450 1A2 (Homo sapiens, UniProt P05177);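 further: PubChem cytochrome P450 panel assay, CYP1A2 panel member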
T1 sequence (P05177 whole entry): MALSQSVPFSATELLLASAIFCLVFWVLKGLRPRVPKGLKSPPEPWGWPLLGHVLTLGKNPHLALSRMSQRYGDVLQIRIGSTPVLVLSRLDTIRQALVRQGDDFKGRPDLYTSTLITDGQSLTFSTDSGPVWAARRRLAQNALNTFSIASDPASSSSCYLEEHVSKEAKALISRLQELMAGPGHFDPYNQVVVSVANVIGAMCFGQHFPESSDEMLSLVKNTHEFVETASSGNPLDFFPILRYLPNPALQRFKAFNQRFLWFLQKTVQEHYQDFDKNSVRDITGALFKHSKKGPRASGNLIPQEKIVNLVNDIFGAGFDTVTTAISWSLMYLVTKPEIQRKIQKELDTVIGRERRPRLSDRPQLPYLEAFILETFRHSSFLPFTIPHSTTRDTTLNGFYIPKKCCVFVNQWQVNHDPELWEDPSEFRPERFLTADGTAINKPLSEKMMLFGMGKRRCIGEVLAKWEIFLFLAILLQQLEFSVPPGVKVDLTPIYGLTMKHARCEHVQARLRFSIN
Settings: not given
In the case of `CCCC[C@H]1C(=O)N(c2ccccc2)N(c2ccc(O)cc2)C1=O`, the AC50 is reported as 1 nM (inconclusive).
For `COc1ccc(-c2cc(C(F)(F)F)n3ncc(C(=O)NCC4CCCO4)c3n2)cc1OC` (stereo not given), the AC50 was 5010 nM (inconclusive).

Test system: not listed separately
Experiment: inhibitors of intracellular T. cruzi replication, confirmation, NIH3T3 host cells, beta-gal luminescence (AID 2044);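 further: intracellular parasites grown in NIH/3T3 mouse fibroblasts as host cells; luminescent beta-galactosidase reporter signal from transgenic T. cruzi replicating inside host cells; inhibitors lower the luminescence signal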
Format: functional, cell-based
Settings: not given
For `CCN(Cc1ccccc1)C(c1cccs1)c1nnnn1C1CCCCC1` (stereo not given), the EC50 was 3.97 µM (active).

Target: Cytochrome P450 3A4 (Homo sapiens, UniProt P08684);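 further: CYP3A4 tested as one member of a cytochrome P450 panel screen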
Sequence (P08684 whole entry): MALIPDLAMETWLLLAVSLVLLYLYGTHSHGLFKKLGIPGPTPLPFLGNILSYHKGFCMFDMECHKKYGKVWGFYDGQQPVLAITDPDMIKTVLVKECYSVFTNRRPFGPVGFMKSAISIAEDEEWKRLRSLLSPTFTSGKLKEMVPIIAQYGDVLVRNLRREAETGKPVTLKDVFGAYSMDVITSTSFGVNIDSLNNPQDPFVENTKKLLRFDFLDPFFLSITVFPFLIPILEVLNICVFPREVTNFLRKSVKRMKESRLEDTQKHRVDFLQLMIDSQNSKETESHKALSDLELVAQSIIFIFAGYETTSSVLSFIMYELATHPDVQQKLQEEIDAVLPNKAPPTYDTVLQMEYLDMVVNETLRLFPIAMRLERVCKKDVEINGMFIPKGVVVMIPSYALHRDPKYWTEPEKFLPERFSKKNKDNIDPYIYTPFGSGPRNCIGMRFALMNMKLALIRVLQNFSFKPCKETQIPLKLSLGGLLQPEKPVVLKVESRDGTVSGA
Settings: not given
With `CCSc1c(C(=O)NC)ccc2c1C(=O)c1ccccc1C2=O` the AC50 was 12.6 µM (inconclusive).
For `COc1ccc(-c2cc(C(F)(F)F)n3ncc(C(=O)NCC4CCCO4)c3n2)cc1OC` (stereo not given), the AC50 was 3.55 µM (inconclusive).
In the case of `Cn1c(=O)cnc2cnc(Nc3ccccc3)nc21`, the AC50 is reported as 25.1 µM (inconclusive).
With `O=C(N/N=C/c1ccc(Sc2nc3ccccc3s2)c([N+](=O)[O-])c1)c1ccccn1` the AC50 was 3.55 µM (inconclusive).

Test system: not listed separately
Experiment: Luminescence Cell-Based Dose Confirmation HTS to Identify Activators of 5'UTR Stem-Loop Driven Alpha-Synuclein mRNA Translation in H4 Neuroglioblastoma Cells. [Related pubchem assays: 1829 (Project Summary), 1814 (Primary HTS)]
Format: functional
Settings: not given
For `COc1ccc(C(=O)/C=C/c2ccccc2OC)c(OC(=O)c2ccc([N+](=O)[O-])cc2)c1`, the EC50 was 17.3 µM (active).
With `N#Cc1nc(Cc2ccccc2)oc1NCCc1ccccc1` the EC50 was 4.71 µM (active).

Target: Cytochrome P450 2C9 (Homo sapiens, UniProt P11712)
Sequence (P11712 whole entry): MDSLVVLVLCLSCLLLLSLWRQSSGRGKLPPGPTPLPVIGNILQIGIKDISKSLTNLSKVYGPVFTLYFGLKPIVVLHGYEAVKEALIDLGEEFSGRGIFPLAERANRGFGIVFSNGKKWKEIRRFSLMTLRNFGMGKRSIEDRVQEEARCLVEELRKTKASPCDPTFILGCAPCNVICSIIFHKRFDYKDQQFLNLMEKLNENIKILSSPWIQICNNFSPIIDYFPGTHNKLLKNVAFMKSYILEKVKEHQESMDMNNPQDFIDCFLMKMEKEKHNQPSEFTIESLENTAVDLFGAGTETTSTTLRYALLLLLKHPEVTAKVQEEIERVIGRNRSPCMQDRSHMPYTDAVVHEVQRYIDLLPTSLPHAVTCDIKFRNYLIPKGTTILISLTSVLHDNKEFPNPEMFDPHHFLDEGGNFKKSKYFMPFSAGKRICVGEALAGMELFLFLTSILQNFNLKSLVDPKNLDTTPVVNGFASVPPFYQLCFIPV
Settings: not given
For `CCCC[C@H]1C(=O)N(c2ccccc2)N(c2ccc(O)cc2)C1=O`, the AC50 was 12.6 µM (inconclusive).
With `CCSc1c(C(=O)NC)ccc2c1C(=O)c1ccccc1C2=O` the AC50 was 10 µM (inconclusive).
With `COc1ccc(-c2cc(C(F)(F)F)n3ncc(C(=O)NCC4CCCO4)c3n2)cc1OC` (stereo not given) the AC50 was 7.94 µM (inconclusive).
In the case of `Cn1c(=O)cnc2cnc(Nc3ccccc3)nc21`, the AC50 is reported as 25.1 µM (inconclusive).
For `O=C(N/N=C/c1ccc(Sc2nc3ccccc3s2)c([N+](=O)[O-])c1)c1ccccn1`, the AC50 was 0.00562 µM (inconclusive).

Test system: not listed separately
Experiment: Luminescence Cell-Based Dose Response HTS to Identify Activators of Luciferase Translation or Activity in H4 […] Cells. [Related pubchem assays: 1829 (Project Summary), 1814 (Primary HTS)]
Format: functional
Settings: not given
With `COc1ccc(C(=O)/C=C/c2ccccc2OC)c(OC(=O)c2ccc([N+](=O)[O-])cc2)c1` the EC50 was 23.8 µM (active).
With `N#Cc1nc(Cc2ccccc2)oc1NCCc1ccccc1` the EC50 was 56.9 µM (active).

Reference: ChEMBL document CHEMBL1201862, “PubChem BioAssay data set” (2004)
